Test results: ChEMBL document CHEMBL5532657, “Serendipitous discovery of Class I HDAC inhibitors from rational design of molecular glue degraders targeting HDAC” (Eur J Med Chem, 2024)
Activity calls are given as the source filed them.

How the values were obtained:
[1] = target: T1, Protein deacetylase HDAC6 (Homo sapiens) (UniProt Q9UBN7); test: Induction of HDAC6 degradation in human RS4-11 cells at 0.5 to 10 uM incubated for 12 hrs by Western blotting analysis; type: cell-based; conditions: dose 0.5-10 µM
T1 sequence (whole entry): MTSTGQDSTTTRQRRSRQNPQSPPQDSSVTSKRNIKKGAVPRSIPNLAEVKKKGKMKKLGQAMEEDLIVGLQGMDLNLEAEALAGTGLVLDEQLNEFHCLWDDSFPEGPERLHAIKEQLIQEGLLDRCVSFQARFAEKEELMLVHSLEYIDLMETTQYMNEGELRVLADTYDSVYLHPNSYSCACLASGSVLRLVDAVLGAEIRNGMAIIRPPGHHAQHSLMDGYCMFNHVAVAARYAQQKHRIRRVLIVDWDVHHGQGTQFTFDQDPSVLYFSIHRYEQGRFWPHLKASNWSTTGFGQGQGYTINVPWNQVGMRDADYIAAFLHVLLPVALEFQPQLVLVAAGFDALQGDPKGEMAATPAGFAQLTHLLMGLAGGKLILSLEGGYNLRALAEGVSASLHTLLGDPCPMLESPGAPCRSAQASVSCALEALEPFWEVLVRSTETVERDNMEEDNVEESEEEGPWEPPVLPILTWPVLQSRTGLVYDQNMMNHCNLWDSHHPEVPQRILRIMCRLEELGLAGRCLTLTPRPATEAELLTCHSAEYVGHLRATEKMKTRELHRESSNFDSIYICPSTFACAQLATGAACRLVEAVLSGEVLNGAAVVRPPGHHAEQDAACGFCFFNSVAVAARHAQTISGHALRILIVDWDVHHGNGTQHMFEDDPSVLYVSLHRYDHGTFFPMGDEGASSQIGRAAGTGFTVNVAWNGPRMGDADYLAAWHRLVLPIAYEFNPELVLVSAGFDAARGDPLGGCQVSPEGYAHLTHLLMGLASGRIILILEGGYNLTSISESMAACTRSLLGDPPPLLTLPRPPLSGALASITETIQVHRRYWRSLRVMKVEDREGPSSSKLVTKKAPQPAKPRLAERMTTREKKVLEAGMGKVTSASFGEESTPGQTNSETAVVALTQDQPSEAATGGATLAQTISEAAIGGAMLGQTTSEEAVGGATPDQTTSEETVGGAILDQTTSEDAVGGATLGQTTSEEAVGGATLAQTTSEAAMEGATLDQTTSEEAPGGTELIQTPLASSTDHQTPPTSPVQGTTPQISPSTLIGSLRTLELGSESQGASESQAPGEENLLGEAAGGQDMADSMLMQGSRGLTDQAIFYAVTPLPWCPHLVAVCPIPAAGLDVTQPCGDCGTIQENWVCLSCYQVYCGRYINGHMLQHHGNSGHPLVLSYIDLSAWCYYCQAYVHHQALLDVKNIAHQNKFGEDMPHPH

A549 = test: Antiproliferative activity against human A549 cells assessed as cell growth inhibition at 5 uM incubated for 48 hrs by CCK-8 assay; type: functional, cell-based
HCT-116 = test: Antiproliferative activity against human HCT-116 cells assessed as cell growth inhibition at 5 uM incubated for 48 hrs by CCK-8 assay; type: functional, cell-based
HeLa = test: Antiproliferative activity against human HeLa cells assessed as cell growth inhibition at 5 uM incubated for 48 hrs by CCK-8 assay; type: functional, cell-based
Histone deacetylase 1 = Histone deacetylase 1 (Homo sapiens, UniProt Q13547); test: Induction of HDAC1 degradation in human RS4-11 cells at 0.5 to 10 uM incubated for 12 hrs by Western blotting analysis; type: cell-based; conditions: dose 0.5-10 µM
Sequence of Histone deacetylase 1 (Q13547 whole entry): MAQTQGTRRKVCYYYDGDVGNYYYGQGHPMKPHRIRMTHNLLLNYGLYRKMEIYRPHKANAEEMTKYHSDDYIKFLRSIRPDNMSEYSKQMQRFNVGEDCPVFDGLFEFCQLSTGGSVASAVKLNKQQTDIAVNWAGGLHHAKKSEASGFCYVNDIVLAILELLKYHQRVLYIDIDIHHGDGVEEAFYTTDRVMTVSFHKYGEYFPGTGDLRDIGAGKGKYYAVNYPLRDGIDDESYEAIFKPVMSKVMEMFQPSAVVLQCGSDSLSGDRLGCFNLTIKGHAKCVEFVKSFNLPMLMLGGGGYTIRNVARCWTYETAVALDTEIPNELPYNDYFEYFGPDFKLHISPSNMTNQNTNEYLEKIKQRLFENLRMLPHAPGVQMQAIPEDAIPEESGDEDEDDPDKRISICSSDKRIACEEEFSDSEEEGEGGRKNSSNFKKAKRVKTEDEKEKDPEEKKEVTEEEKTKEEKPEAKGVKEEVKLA

Measured: Activity

Nc1ccccc1NC(=O)c1cn(CCOCCOCCOCCNc2cccc3c2C(=O)N(C2CCC(=O)NC2=O)C3=O)nn1 (stereo not given)
inactive: all assays above

O=C1CCC(N2C(=O)c3cccc(NCCOCCOCCOCCn4cc(C(=O)NO)nn4)c3C2=O)C(=O)N1 (stereo not given)
inactive: all assays above

O=C1CCC(N2C(=O)c3cccc(NCCOCCn4cc(C(=O)NCCS)nn4)c3C2=O)C(=O)N1 (stereo not given)
inactive: all assays above

Nc1ccccc1NC(=O)c1cn(CCOCCOCCNc2cccc3c2C(=O)N(C2CCC(=O)NC2=O)C3=O)nn1 (stereo not given)
inactive: all assays above

O=C(CCCCNc1cccc2c1C(=O)N(C1CCC(=O)NC1=O)C2=O)NO (stereo not given)
inactive: all assays above

Nc1cc(F)ccc1NC(=O)CCCCCCNc1cccc2c1C(=O)N(C1CCC(=O)NC1=O)C2=O (stereo not given)
inactive: all assays above

O=C1CCC(N2C(=O)c3cccc(NCc4ccc(C(=O)NCCS)cc4)c3C2=O)C(=O)N1 (stereo not given)
inactive: all assays above

Nc1cccc2c1C(=O)N(C1CCC(=O)NC1=O)C2=O (stereo not given)
inactive: all assays above

Nc1ccccc1NC(=O)CCCCNc1cccc2c1C(=O)N(C1CCC(=O)NC1=O)C2=O (stereo not given)
inactive: all assays above

CCCNNC(=O)CCCCCCNc1cccc2c1C(=O)N(C1CCC(=O)NC1=O)C2=O (stereo not given)
inactive: all assays above

Nc1ccccc1NC(=O)CCCCCCCNc1cccc2c1C(=O)N(C1CCC(=O)NC1=O)C2=O (stereo not given)
inactive: all assays above

O=C1CCC(N2C(=O)c3cccc(NCCOCCOCCOCCn4cc(C(=O)NCCS)nn4)c3C2=O)C(=O)N1 (stereo not given)
inactive: all assays above
